# Reference: US4395404A, “Synthetic thymosin β3 and β4 analogues” (George Washington University, priority 1982, dated 1983)
# Where no end group is shown, it is not given here.
# Experiments:
# [1] = test system: TdT activity in thymocytes; experiment: In vivo effect on TdT activity in thymocytes of hydrocortisone acetate (HCA) treated mice; set-up: species or system C57B1/6J mice; details: for TdT Specific Activity: daily for 11 days after 1.25 mg HCA at day 0, HCA-saline 6.4, normal 8.9; for TdT % Increase over HCA-saline: daily for 11 days after HCA
# Procedure: The in vivo effect of thymosin fractions, i.e. thymosin β3 (designated HCA-thymosin β3), thymosin β4 (designated HCA-thymosin β4), thymosin fraction 5 (designated HCA-thymosin fr 5), compound of formula VI (designated HCA-synthetic C8 β4) and compound of formula XVI (designated HCA-synthetic C12 β3, on TdT activity in thymocytes of hydrocortisone acetate (HCA) treated C57B1/6J mice was assayed and determined according to the method of Hu, et al., 38, 1079 (1979).
# For TdT activity determination [(following the Hu et al method (supra)], a 1.25 mg HCA injection per animal was carried out at day zero (0). Each injection was followed by daily treatment of the animal with the thymosin fractions (supra) or controls, i.e. no HCA and HCA-saline, for eleven (11) consecutive days. The increase in TdT specific activity (nmoles of dGTP incorporated per 10^8 thymocytes per hour) over that of HCA-saline treated animals was determined, the data compiled in columns 1-4 of Table 2.
# Splenic lymphocytes = experiment: In vivo restoration of splenic mitogenic responses in HCA suppressed mice (tritiated thymidine incorporation); set-up: species or system C57B1/6J mice; details: for Mitogens PHA-P (cpm): HCA-saline 12,000, normal 30,000; for Mitogens Con A (cpm): HCA-saline 86,000, normal 210,000
# Procedure: The in vivo effect of thymosin fractions (supra) on restoration of splenic mitogenic responses in HCA suppressed C57B1/6J mice was assayed and determined by the following method.
# Splenic lymphocytes were removed sterilly, placed in plastic petri dishes containing RPMI 1640 (with 25 mM HEPES buffer, 100 μ/ml penicillin, 100 μg/ml streptomycin and 2mM L-glutamine) and a 64-mesh stainless steel wire screen. Single cell suspensions were obtained by further passage through a 25 GA needle. The cells were washed twice, counted using a Coulter Counter Model A and suspended to give a concentration of 6×10^6 leukocytes/ml. Cultures were prepared in flat bottom 96 well microtiter plates by placing 0.10 ml of the cell suspension into each well plus 0.05 ml 20% heat inactivated fetal calf serum (FCS) (resulting in 6×10^5 cells/well in 5% FCS final). Control cultures received 0.05 ml of RPMI 1640, and the stimulated cultures received 0.025 ml of RPMI 1640 containing various concentrations of thymosin and 0.025 ml of various concentrations of PHA-P (Difco, Detroit, Michigan), Con-A (Calbiochem, Oxnard, California), PWM (GIBCO, Grand Island, New York) or E. coli LPS (Difco, Detroit, Michigan) all made up in RPMI 1640. Cultures were pulsed by adding 1 uCi tritiated thymidine, 1.9 Ci/mM (Schwartz/Mann,Orangeburg, New Jersey), in 0.02 ml of RPMI 1640 8 hours before culture termination. Cultures were harvested utilizing a Multiple-Automated Sample Harvester (Microbiological Associates, Bethesda, Maryland). The resulting filter spots were dried and placed in glass liquid scintillation mini-vials to which was added 1 ml of scintillation cocktail. The vials were stoppered and the tritiated thymidine incorporation analyzed by scintillation spectrophotometry on an LKB liquid scintillation counter to provide Con A (cpm) and PHA-P (cpm). Processing of the data and necessary statistical tests were performed on a Wang 700 C Advanced Programming Calculator (Wang Labs, Tewksbury, Massachusetts) and are compiled in columns 1-2 and 5-6 of Table 2.
# [2] = test system: Peritoneal exudate cells (PEC) from guinea pig; experiment: Macrophage Migration Inhibitory Factor (MIF) assay, nonspecific inhibition of macrophage migration; assay type: cell-based, Hartley strain guinea pigs; details: less than 20% considered insignificant
# Procedure: The standardized Macrophage Migration Inhibitory Factor (MIF) assay for natural thymosin β4, synthetic thymosin β4, compounds of formula XVI, (designated C12 β3), formula VI (designated C8 β4), formula IV (designated C10 β4), and formula VIII (designated C6 β4) was performed following the method of Thurman, et al., Lymphokines and Thymic Hormones: Their Potential Utilization in Cancer Therapeutics, ed. by Goldstein and Chirigos, Raven Press, New York, pp 145-157 (1981). Peritoneal exudate cells (PEC) from guinea pig were prepared in Hartley strain guinea pigs by injecting 20-30 ml of sterile mineral oil 3-5 days prior to the assay. On the day of the assay, the guinea pigs were anesthetized and injected i.p. with 50 ml of RPMI-1640. Following abdominal massage, the peritoneum was opened with a one inch incision in the umbilical region and the peritoneal fluids withdrawn. The peritoneal fluids were centrifuged at 200×g for 10 min and the pelleted cells resuspended in a small volume of RPMI for transfer to clean tubes. Following three more washes, the cells were resuspended, counted and adjusted to 45×10^6/ml for use. In some experiments mouse PEC were used in place of guinea pig PEC. The mouse PEC were induced in BALB/c normal or nude mice by injecting 1 ml of mineral oil i.p. 3 days prior obtaining the cells by washing the peritoneum with 5 ml of RPMI 1640. In some experiments macrophage-like cell lines, WEHI-3 and FC-1, were used in place of PEC. The WEHI-3 cells migrate and have been reported to respond to migration inhibitory factor (MIF). Likewise, the FC-1 cells are also migratory and respond to MIF. […] The percent nonspecific inhibition (PNSI) was calculated as: [formula] […] Percent nonspecific inhibition of migration of less than 20% was also considered insignificant. The date from these experiments are compiled in Table 3.
# T-cell populations = details: partially purified; Low and Goldstein 1978; cited from earlier work
# [3] = test system: TdT positive cells in the thymus; details: following steroid induced immunosuppression; Low et al. 1981; cited from earlier work
# macrophages = details: Thurman et al. 1981; cited from earlier work
Substance,TdT Specific Activity ([1]; 1 μg/injection),TdT % Increase over HCA-saline ([1]; 1 μg/injection),Mitogens PHA-P (cpm) (Splenic lymphocytes; 1 μg/injection),Mitogens Con A (cpm) (Splenic lymphocytes; 1 μg/injection),PNSI (percent nonspecific inhibition of macrophage migration) ([2]; 0.005 nmoles/ml),PNSI (percent nonspecific inhibition of macrophage migration) ([2]; 0.05 nmoles/ml),PNSI (percent nonspecific inhibition of macrophage migration) ([2]; 0.5 nmoles/ml),Induction of TdT positive cells in T-cell populations (T-cell populations),Reappearance of TdT positive cells in the thymus [3],Migration of macrophages (macrophages),TdT Specific Activity ([1]; 10 μg/injection),TdT % Increase over HCA-saline ([1]; 10 μg/injection),Mitogens PHA-P (cpm) (Splenic lymphocytes; 10 μg/injection),Mitogens Con A (cpm) (Splenic lymphocytes; 10 μg/injection),PNSI (percent nonspecific inhibition of macrophage migration) ([2]; 0.0005 nmoles/ml)
"thymosin β4 [Natural thymosin β4, reference compound]",8.8 nmoles of dGTP incorporated pe,38%,"10,000 cpm","125,000 cpm",23.1%,29.2%,37.6%,induce TdT positive cells,accelerate the reappearance of TdT positive cells in the thymus,inhibit the migration of macrophages,,,,,
"QAGESDEITAKT [C12 β3, L-Glutaminyl-L-alanyl-glycyl-L-glutamyl-L-seryl-L-aspartyl-L-glutamyl-L-isoleucyl-L-threonyl-L-alanyl-L-lysyl-L-threonine]",,,,,24.7%,29.7%,30.2%,,,,8.2 nmoles of dGTP incorporated pe,28%,"65,000 cpm","110,000 cpm",23.5%
"thymosin β3 [HCA--Thymosin β3, reference compound]",9.7 nmoles of dGTP incorporated pe,52%,"27,000 cpm","120,000 cpm",,,,induce TdT positive cells,accelerate the reappearance of TdT positive cells in the thymus,inhibit the migration of macrophages,,,,,
"IEQEKQQAGES [C10 β4, L-Isoleucyl-L-glutamyl-L-glutaminyl-L-glutamyl-L-lysyl-L-glutaminyl-L-glutaminyl-L-alanyl-glycyl-L-glutamyl-L-serine]",,,,,10.7%,18.8%,21.6%,,,,,,,,-5.3%
"KQAGES [C6 β4, L-Lysyl-L-glutaminyl-L-alanyl-glycyl-L-glutamyl-L-serine]",,,,,-5.1%,15.2%,18.3%,,,,,,,,3.1%
"Synthetic thymosin β4: synthetic thymosin β4, tested beside natural thymosin β4 in the MIF assay (SDKPDMAEIEKFDKSKLKKTETQEKNPLPSKETIEQEKQAGES; Thymosin beta-4 synthetic; UniProt P62328 2-44, looked up) [reference compound]",,,,,25.0%,25.9%,30.3%,,,,,,,,
"QEKQAGES [C8 β4, L-glutaminyl-L-glutamyl-L-lysyl-L-glutaminyl-L-alanyl-glycyl-L-glutamyl-L-serine]",,,,,27.0%,25.4%,24.1%,,,,7.6 nmoles of dGTP incorporated pe,19%,"11,000 cpm","140,000 cpm",5.5%
